Laboratory results: patent publication US8835644B2, “Broad spectrum benzothiophene-nitrothiazolide and other antimicrobials” (University of Virginia Patent Foundation, priority 2009, dated 2014)
≈ marks a conversion by molar mass, not a printed value. Where two headings read alike, the source gives them in different places. Each block holds one compound with its values, some of them ahead of it.

Assays:
H. pylori = assay: MIC testing by broth dilution, H. pylori; assay type: cell-based, Helicobacter pylori
Description: (§1) A standard broth dilution protocol was used in 96 well microplates containing a standard dilution of the microorganism to be tested in 100 microliters of the appropriate medium. Appropriate medium: E. coli, LB medium; Staphylococcus strains, Trypticase Soy; and for H. pylori and C. jejuni, Brain Heart Infusion. The compounds to be tested were set at 32 μg/ml in 200 microliters in well one and then serially diluted to provide a range from 32 to 0.06. The wells were scored visually at 24 h. The well where there was no growth was recorded as the MIC. Clostridium difficile was tested by agar diffusion and disk diffusion (Kirby Bower) methods under anaerobic conditions on Wilkins Chalgrin agar. In these assays, zone of inhibited growth was measured and compared by relative ratio to the zone recorded for NTZ.
(§2) Representative compounds of the invention were tested in a series of assays against a series of organisms as described above. […] The organisms tested include, C. difficile, H. pylori, C. jejuni, MRSA, S. epidermidis, and E. coli. S. epidermidis and E. coli were tested in the plank and biofilm assay. A disk diffusion assay was also used for C. difficile. Direct PFOR enzyme assays were also performed. All analogues and derivatives were not tested on every organism in every type of assay (the “-” in each table means that it was not tested).

C. jejuni = assay: MIC testing by broth dilution, C. jejuni; assay type: cell-based, Campylobacter jejuni
Description: as §1, §2

MRSA = assay: MIC testing by broth dilution, MRSA; assay type: cell-based, Staphylococcus aureus
Description: as §1, §2

S. epidermidis = assay: MIC testing by broth dilution, S. epidermidis plank; assay type: cell-based, Staphylococcus epidermidis
Description: as §1, §2

E. coli = assay: MIC testing by broth dilution, E. coli plank; assay type: cell-based, Escherichia coli
Description: as §1, §2

[1] = Furan analogues table, read-out: MIC H. pylori
[2] = Furan analogues table, read-out: MIC C. jejuni
[3] = Furan analogues table, read-out: MIC MRSA
[4] = planktonic, Furan analogues table, read-out: MIC S. epidermidis Plank
[5] = planktonic, Furan analogues table, read-out: MIC E. coli Plank
[6] = broth dilution, Brain Heart Infusion, 24 h, read-out: MIC (μM) H. pylori
[7] = broth dilution, Brain Heart Infusion, 24 h, read-out: MIC (μM) C. jejuni
[8] = broth dilution, Trypticase Soy, 24 h, read-out: MIC (μM) MRSA
[9] = broth dilution, Trypticase Soy, 24 h, read-out: MIC (μM) S. epidermidis Plank
[10] = broth dilution, LB medium, 24 h, read-out: MIC (μM) E. coli Plank
[11] = Thiophene analogues table, read-out: MIC H. pylori
[12] = Thiophene analogues table, read-out: MIC C. jejuni
[13] = Thiophene analogues table, read-out: MIC MRSA
[14] = planktonic, Thiophene analogues table, read-out: MIC S. epidermidis Plank
[15] = planktonic, Thiophene analogues table, read-out: MIC E. coli Plank
[16] = Helicobacter pylori, 24 h, read-out: MIC (μM) H. pylori
[17] = Campylobacter jejuni, 24 h, read-out: MIC (μM) C. jejuni
[18] = Staphylococcus aureus, MRSA, 24 h, read-out: MIC (μM) MRSA
[19] = Staphylococcus epidermidis, 24 h, read-out: MIC (μM) S. epidermidis Plank
[20] = Escherichia coli, 24 h, read-out: MIC (μM) E. coli Plank

- MIC (H. pylori; [6]): 6.9 µM (≈ 2.11 µg/mL)
- MIC (C. jejuni; [7]): 41.6 µM (≈ 12.7 µg/mL)
- MIC (MRSA; [8]): 55.5 µM (≈ 17 µg/mL)
- MIC (S. epidermidis; [9]): 111.0 µM (≈ 34 µg/mL)
- MIC (E. coli; [10]): 111.0 µM (≈ 34 µg/mL)
SMILES: CC(=O)Nc1ccccc1C(=O)Nc1ncc([N+](=O)[O-])s1 [VPC162046b]

- MIC (H. pylori; [6]): 0.5 µM (≈ 0.19 µg/mL)
- MIC (C. jejuni; [7]): 84.4 µM (≈ 32 µg/mL)
- MIC (MRSA; [8]): 84.3 µM (≈ 32 µg/mL)
- MIC (S. epidermidis; [9]): 84.3 µM (≈ 32 µg/mL)
- MIC (E. coli; [10]): 84.3 µM (≈ 32 µg/mL)
SMILES: CC(C)(C)OC(=O)COc1ccc(C(=O)Nc2ncc([N+](=O)[O-])s2)cc1 [VPC162036]

- MIC (H. pylori; Helicobacter pylori, Thiophene analogues table, read-out: MIC H. pylori): 12.8 µM (≈ 4 µg/mL)
- MIC (C. jejuni; Campylobacter jejuni, Thiophene analogues table, read-out: MIC C. jejuni): 102 µM (≈ 32 µg/mL)
- MIC (MRSA; Staphylococcus aureus, MRSA, Thiophene analogues table, read-out: MIC MRSA): 102 µM (≈ 32 µg/mL)
- MIC (S. epidermidis; Staphylococcus epidermidis, planktonic, Thiophene analogues table, read-out: MIC S. epidermidis Plank): 102 µM (≈ 32 µg/mL)
- MIC (E. coli; Escherichia coli, planktonic, Thiophene analogues table, read-out: MIC E. coli Plank): 102 µM (≈ 32 µg/mL)
SMILES: O=C(Nc1nccs1)c1sc2cc(F)ccc2c1Cl [VPC161235]

The next lines start with the compound.

SMILES: O=C(Nc1ncc([N+](=O)[O-])s1)c1ccc(-c2cccc(Cl)c2)o1 [VPC16b1119]
- MIC (H. pylori; [1]): 1.1 µM (≈ 0.385 µg/mL)
- MIC (C. jejuni; [2]): 22.9 µM (≈ 8.01 µg/mL)
- MIC (MRSA; [3]): 91.5 µM (≈ 32 µg/mL)
- MIC (S. epidermidis; [4]): 91.5 µM (≈ 32 µg/mL)
- MIC (E. coli; [5]): 91.5 µM (≈ 32 µg/mL)

SMILES: Cc1ccc(-c2ccc(C(=O)Nc3ncc([N+](=O)[O-])s3)o2)cc1 [VPC16b2019]
- MIC (H. pylori; [1]): 1.5 µM (≈ 0.494 µg/mL)
- MIC (C. jejuni; [2]): 97.2 µM (≈ 32 µg/mL)
- MIC (MRSA; [3]): 97.2 µM (≈ 32 µg/mL)
- MIC (S. epidermidis; [4]): 97.2 µM (≈ 32 µg/mL)
- MIC (E. coli; [5]): 97.2 µM (≈ 32 µg/mL)

SMILES: O=C(Nc1ncc([N+](=O)[O-])s1)c1cc(F)c(F)cc1F [VPC16b1012]
- MIC (H. pylori; [6]): 0.8 µM (≈ 0.243 µg/mL)
- MIC (C. jejuni; [7]): 9.9 µM (≈ 3 µg/mL)
- MIC (MRSA; [8]): 33.0 µM (≈ 10 µg/mL)
- MIC (S. epidermidis; [9]): 33.0 µM (≈ 10 µg/mL)
- MIC (E. coli; [10]): 105.5 µM (≈ 32 µg/mL)

SMILES: O=C(Nc1ncc([N+](=O)[O-])s1)c1sccc1Cl [VPC16a1009]
- MIC (H. pylori; [11]): 5.2 µM (≈ 1.51 µg/mL)
- MIC (C. jejuni; [12]): 20.7 µM (≈ 6 µg/mL)
- MIC (MRSA; [13]): 20.7 µM (≈ 6 µg/mL)
- MIC (S. epidermidis; [14]): 55.2 µM (≈ 16 µg/mL)
- MIC (E. coli; [15]): 110.5 µM (≈ 32 µg/mL)

SMILES: Cc1ccccc1-c1ccc(C(=O)Nc2ncc([N+](=O)[O-])s2)o1 [VPC16a1103]
- MIC (H. pylori; [1]): 3.8 µM (≈ 1.25 µg/mL)
- MIC (C. jejuni; [2]): 24.3 µM (≈ 8 µg/mL)
- MIC (MRSA; [3]): 12.1 µM (≈ 3.98 µg/mL)
- MIC (S. epidermidis; [4]): 12.1 µM (≈ 3.98 µg/mL)
- MIC (E. coli; [5]): 97.2 µM (≈ 32 µg/mL)

SMILES: O=C(Nc1ccccc1)Nc1ncc([N+](=O)[O-])s1 [VPC161223, 1-(5-Nitrothiazol-2-yl)-3-phenylurea]
- MIC (H. pylori; [16]): 1.4 µM (≈ 0.37 µg/mL)
- MIC (C. jejuni; [17]): 30.3 µM (≈ 8.01 µg/mL)
- MIC (MRSA; [18]): 30.3 µM (≈ 8.01 µg/mL)
- MIC (S. epidermidis; [19]): 30.3 µM (≈ 8.01 µg/mL)
- MIC (E. coli; [20]): 121 µM (≈ 32 µg/mL)

SMILES: O=C(Nc1ncc([N+](=O)[O-])s1)c1ccc(-c2ccccc2Cl)o1 [VPC16b1118]
- MIC (H. pylori; [1]): 1.4 µM (≈ 0.49 µg/mL)
- MIC (C. jejuni; [2]): 11.4 µM (≈ 3.99 µg/mL)
- MIC (MRSA; [3]): 11.4 µM (≈ 3.99 µg/mL)
- MIC (S. epidermidis; [4]): 5.7 µM (≈ 1.99 µg/mL)
- MIC (E. coli; [5]): 91.5 µM (≈ 32 µg/mL)

SMILES: Cl.O=C(Nc1ncc([N+](=O)[O-])s1)c1ccccc1OCCNC(=O)C1CCNCC1 [VPC162068]
- MIC (H. pylori; [6]): 52.6 µM
- MIC (C. jejuni; [7]): 35.1 µM
- MIC (MRSA; [8]): 70.2 µM
- MIC (S. epidermidis; [9]): 70.2 µM
- MIC (E. coli; [10]): 70.2 µM

SMILES: O=C(O)COc1ccccc1C(=O)Nc1ncc([N+](=O)[O-])s1 [VPC162042, 2-(2-(5-nitrothiazol-2-ylcarbamoyl)phenoxy)acetic acid]
- MIC (H. pylori; [16]): 49.5 µM (≈ 16 µg/mL)
- MIC (C. jejuni; [17]): 99 µM (≈ 32 µg/mL)
- MIC (MRSA; [18]): 99 µM (≈ 32 µg/mL)
- MIC (S. epidermidis; [19]): 99 µM (≈ 32 µg/mL)
- MIC (E. coli; [20]): 99 µM (≈ 32 µg/mL)

SMILES: O=C(Nc1ncc([N+](=O)[O-])s1)c1cc(F)c(F)c(F)c1 [VPC16b1014]
- MIC (H. pylori; [6]): 1.2 µM (≈ 0.364 µg/mL)
- MIC (C. jejuni; [7]): 4.9 µM (≈ 1.49 µg/mL)
- MIC (MRSA; [8]): 29.7 µM (≈ 9.01 µg/mL)
- MIC (S. epidermidis; [9]): 66.0 µM (≈ 20 µg/mL)
- MIC (E. coli; [10]): 105.5 µM (≈ 32 µg/mL)

SMILES: Cc1cccc(-c2ccc(C(=O)Nc3ncc([N+](=O)[O-])s3)s2)c1 [VPC16b2011]
- MIC (H. pylori; [11]): 2.2 µM (≈ 0.76 µg/mL)
- MIC (C. jejuni; [12]): 92.6 µM (≈ 32 µg/mL)
- MIC (MRSA; [13]): 92.6 µM (≈ 32 µg/mL)
- MIC (S. epidermidis; [14]): 92.6 µM (≈ 32 µg/mL)
- MIC (E. coli; [15]): 92.6 µM (≈ 32 µg/mL)

SMILES: O=C(Nc1ncc([N+](=O)[O-])s1)c1ccc(F)cc1F [VPC16b1009]
- MIC (H. pylori; [6]): 0.4 µM (≈ 0.114 µg/mL)
- MIC (C. jejuni; [7]): 7.0 µM (≈ 2 µg/mL)
- MIC (MRSA; [8]): 28.0 µM (≈ 7.99 µg/mL)
- MIC (S. epidermidis; [9]): 42.1 µM (≈ 12 µg/mL)
- MIC (E. coli; [10]): 112.2 µM (≈ 32 µg/mL)

SMILES: Cl.NCCOc1cc([N+](=O)[O-])ccc1C(=O)Nc1ncc([N+](=O)[O-])s1 [VPC161256]
- MIC (H. pylori; [6]): 1.3 µM
- MIC (C. jejuni; [7]): 5.1 µM
- MIC (MRSA; [8]): 82.1 µM
- MIC (S. epidermidis; [9]): 82.1 µM
- MIC (E. coli; [10]): 82.1 µM
